From article PMC12843137, “Fine-Tuning Side Chain Substitutions: Impacts on the Lipophilicity–Solubility–Permeability Interplay in Macrocyclic Peptides” (Marine Drugs, 2025)
Values after ≈ are worked out from the molar mass of the structure shown. Marks after values point to notes of the source that are not given here.

Experiments:
[1] = log D7.4 by shake-flask method (1-octanol/PBS); format: physicochemical; conditions: 1-octanol/PBS, pH 7.4, 1-Octanol/PBS pH 7.4, shake-flask
Experimental: (§1) One explanation for the high IC50 values (i.e., low activity) of the new compounds is their potential poor solubility in aqueous solution or inadequate lipophilicity. To investigate this hypothesis, we determined kinetic solubility in […] phosphate buffer at pH 7.4 (Table 1). […] The remaining two compounds, BE and 29, show low solubilities (<0.1 μM). […] Additionally, since approximately 95% of drugs are ionizable, assessment of lipophilicity at pH 7.4 (log D7.4) is essential during the initial phases of drug discovery. In this study, we employ the shake-flask method to evaluate this property. […] Because lipophilicity directly reflects compound–membrane interaction, the activity of these compounds against PANC-1 cells likely stems from their interaction with the cell membrane.
The basic solution is titrated with the acidic solution to achieve pH 7.4, with the pH verified and adjusted to 7.4 ± 0.1 on the experiment day. Saturated 1-octanol and PBS (pH 7.4) are also prepared. The stock solutions of test compounds and control compound progesterone are prepared in DMSO at a concentration of 10 mM (0.666 mM: compound 39). The detailed procedure for log D determinations can be found in the SI. […]
4. Procedure for log D determinations […]
µL of phosphate buffer saturated 1-octanol to get a concentration of 300 µM working solution. 20 µL of 300 µM compound solution is placed in order into their proper 96-well rack followed by the addition of 980 µL of 1-octanol saturated phosphate buffer. One stir stick is added to each vial and vials are sealed molded PTFE/Silicone plugs. Then the log D plate is transferred to the Eppendorf Thermomixer Comfort plate shaker and shaken at 25°C at 1,100 RPM for 1 h. The assay is performed in duplicate. After completion of 1 h, the stir sticks are removed using a big magnet. The samples are then centrifuged at 25°C at 20,000 g for 20 minutes to separate the phases, and syringe is used to remove the lower (buffer) phases to the empty tubes. Then the buffer phase is diluted with the same volume of acetonitrile/ultrapure water (50%/50%) for LC-MS/MS analysis. 300 µM working solution is diluted with acetonitrile/ultrapure water (50%/50%) to achieve a concentration of 3 µM. Then the 3 µM solution is diluted to 0.3 µM to get the total samples by adding 4 volumes of acetonitrile/ultrapure water (50%/50%) and 5 volumes of 1-octanol saturated Phosphate Buffer for LC-MS/MS analysis. […]
test compounds and control compound is placed in order into their 2.0 mL deep well plate, 500 µL of […]
followed by the addition of 500 µL of saturated PBS (pH 7.4). Seal the plate using a Silicone sealing mat.
Then the log D plate is transferred to the Eppendorf Thermomixer Comfort plate shaker and shaken at 25°C at 2,000 RPM for 2 h. After completion of 2 h, the samples are then centrifuged at 25°C at 3,220 g for 30 minutes to separate the phases, and pipette are used to remove the upper (1-octanol) and lower (buffer) phases to the empty tubes, respectively. Aliquots of 50 µL are taken from upper phases followed by addition of 450 µL of acetonitrile (containing internal standards (IS, 200 nM labetalol, 100 nM tolbutamide and 100 nM ketoprofen)). Mix with a pipette, and then aliquots of 50 µL are taken from the diluent followed by addition of 450 µL of acetonitrile (containing internal standards (IS, 200 nM labetalol, 100 nM tolbutamide and 100 nM ketoprofen)). […]

[2] = Kinetic solubility in PBS pH 7.4; format: physicochemical; conditions: PBS pH 7.4, 25 °C; for solubility at 2 h: sodium phosphate buffer (PBS), 25 °C, pH 7.4, aqueous buffer, kinetic from dmso stock
Experimental: as §1
Solubility is determined in 100 mM sodium phosphate buffer (PBS), pH 7.4. The stock solutions of test compound and control compound progesterone are prepared in DMSO at a concentration of 10 mM. 30 µL of working solutions of each sample is placed in order into their proper 96-well rack. 970 µL of PBS pH 7.4 is added into each vial of the cap-less Solubility Sample plate. The assay is performed in duplicate. Add one stir stick to each vial and seal using a molded PTFE/Silicone plug. Then the Solubility Sample plate is transferred to the Eppendorf Thermomixer Comfort plate shaker and shaken at 25 °C at 1100 RPM for 2 h. After completion of the 2 h, plugs are removed and the stir sticks are removed using a big magnet, the samples from the Solubility Sample plate are transferred into the filter plate. Using the Vacuum Manifold, all the samples are filtered. Aliquot of 5 µL is taken from the filtrate, followed by addition of 5 µL DMSO and 490 µL of a mixture of H2O and acetonitrile (1:1 in v/v). 200 μL of diluent is transferred to a new 96-well plate for LC-MS/MS analysis (see SI Bioanalytical Method for Solubility Measurement). The dilution factor is changed according to the solubility values and the LC-MS signal response.
MRM) / -4500 v (negative MRM). […]
13. Bioanalytical Method for Solubility Measurement
MS analysis: Triple Quad TM 5500 instrument from AB Inc (Canada) with an ESI interface
Injection volume: 1 μL, 3 μL, 5 μL or 10 μL
Column: ACQUITY UPLC BEH C18 (2.1 × 50 mmI.D. S-1.7 μm, 12 nm) Column
Mobile phase: 0.1% Ammonium hydroxide solution in water (A) and 0.1% Ammonium hydroxide solution
Column: XSelect Hss T3 2.5μm (2.1 × 50 mm) Column XP
Mobile phase: 0.1% formic acid in water (A) and 0.1% formic acid in acetonitrile (B)

Row | Structure (SMILES) | logD [1] | solubility at 2 h [2] [µM] | Solubility ([2]; 2 h)
1 | CCCCCCCCCCCCCC1OC(=O)CN(C)C(=O)C=CC(CN2CCN(C)CC2)NC(=O)CNC(=O)C(C)(O)C(=O)C1C (centres unmarked) [BE-NMP] | > 5 | 210 (≈ 139 µg/mL) | –
2 | CCCCOc1ccc(-c2ccc(-c3ccc(Cn4cc(CCCCC[C@H]5OC(=O)CN(C)C(=O)/C=C/[C@@H](CN6CCN(C)CC6)NC(=O)CNC(=O)[C@@](C)(O)C(=O)[C@H]5C)nn4)cc3)cc2)cc1 [Compound 29] | 3.87 | < 0.1 | <0.063 * µM
3 | CC1C(=O)C(C)(O)C(=O)NCC(=O)NC(CN2CCN(C)CC2)C=CC(=O)N(C)CC(=O)OC1CCCCc1cn(CCCCCCCCNC(=N)N)nn1 (centres unmarked) [Compound 31] | – | 268 (≈ 207 µg/mL) | –
4 | C[C@@H]1C(=O)[C@](C)(O)C(=O)NCC(=O)N[C@H](CN2CCN(C)CC2)/C=C/C(=O)N(C)CC(=O)O[C@H]1CCCCCc1cn(CCCCCCCNc2cccc3c2CN(C2CCC(=O)NC2=O)C3=O)nn1 (some centres unmarked) [Compound 40] | 0.93 | 259 (≈ 252 µg/mL) | –
